Data published in US20090010993A1, “Composition comprising polyphenol” (Conopco, Inc. d/b/a Unilever, priority 2007, published 2009).

Test system: 2nd order mesenteric resistance arteries of SHR
Assay: Reactivity of isolated arteries: dilator effect during contraction induced by 40 mmol/L K+
Design: species or system Spontaneously Hypertensive Rats (SHR)
Method: Segments of 2nd order mesenteric artery side branches were isolated from 14 weeks old male Spontaneously Hypertensive Rats (SHR). Two stainless-steel wires (diameter 40 μm) were inserted in the lumen of the arterial segments, which were then mounted in organ chambers between an isometric force transducer and a displacement device (Danish Myotechnology by J. P. Trading, Denmark). The organ chambers were filled with Krebs-Ringer bicarbonate solution which was maintained at 37° C. and continuously aerated with 95% O2 and 5% CO2. Before the actual experiments started, arterial segments were stretched to their individual optimal lumen diameter for mechanical performance, i.e. the diameter at which maximal contractile responses to noradrenaline (10 μmol/L) were obtained. In each experiment four second order mesenteric resistance arterial segments from one animal were mounted in individual organ chambers and studied in parallel. At the start of the experiments, all four arterial preparations were incubated during 20 min with capsaicin (1 μmol/L) to persistently desensitize sensory-motor nerves and to obtain a stable and considerable contractile response to potassium (K^+, 40 mmol/L). During all the experiments superoxide dismutase (SOD, 5 U/ml) was present, to preserve stability of the metabolites. We tested the effects of the 35 different phenolic compounds using a Plackett-Burman screening design. The experiment consisted of 5 separate saturated 8 run Plackett-burman designs. […] In this way, the effects of different exposure times to the mixtures (7, 30 and 90 min) on K+-induced contraction, could be evaluated. […] Effects of increasing concentrations of the solvent and of the mixes (0.1 to 100 umol/L) during contractile responses to 40 mmol/L K+, were calculated as % change of the level of pre-contraction. […] Responses to acetylcholine and Na-nitroprusside were analysed in terms of sensitivity (pD2=−log (M) EC50) and maximal effect (Emax) by least square sigmoidal curve fitting of individual concentration-response curves (Graphpad Prism 1.00, San Diego, Calif., USA). […]

## O=c1c(O)c(-c2ccc(O)cc2)oc2cc(O)cc(O)c12 [kaempferol, 3,5,7-trihydroxy-2-(4-hydroxyphenyl)-4H-1-benzopyran-4-one]
Rattus norvegicus, isolated mesenteric resistance arteries of SHR, pre-contracted with 40 mmol/L K+, deduced by comparing mixtures (Plackett-Burman design), corrected for solvent, read-out: EC50 of dilation of the arteries
  EC50: 3000 nM
At a low concentration, isolated SHR mesenteric arteries, comparison of different mixtures
  influence on the dilation of the arteries: significant influence on the dilation of the arteries
Isolated mesenteric resistance arteries of SHR, pre-contracted with 40 mmol/L K+, range tested 0.1-100 umol/L
  concentration at which the maximum dilatation was obtained: 100 µM
